Test results as given in US6472348B1, “Pyridone derivatives and herbicides” (Kumiai Chemical Industry Co., Ltd., priority 1996, dated 2002).

Assays:
China jute (Ab) = test: Test Example 4: crop plant selectivity by upland field soil treatment (cotton), herbicidal effects; assay type: in vivo; set-up: scale not given here; conditions: evaluated 21st day after application
In short: (§1)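 Cotton and weeds (incl. China jute, pale smartweed, slender amaranth) sown in sand-filled pots and covered with soil, then soil-treated. Grown in greenhouse; herbicidal effect and cotton phytotoxicity scored on day 21 after application against a rating standard.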

[1] = tested on: common lambsquarters (Ch); test: as above; assay type: in vivo; set-up: scale not given here; conditions: evaluated 21st day after application
In short: as §1

green foxtail (Se) = test: as above; assay type: in vivo; set-up: scale not given here; conditions: evaluated 21st day after application
In short: as §1

pale smartweed (Po) [2] = test: as above; assay type: in vivo; set-up: scale not given here; conditions: evaluated 21st day after application
In short: as §1

slender amaranth (Am) [3] = test: as above; assay type: in vivo; set-up: scale not given here; conditions: evaluated 21st day after application
In short: as §1

pale smartweed (Po) [4] = test: Test Example 6: crop plant selectivity by upland field soil treatment (soybean), herbicidal effects; assay type: in vivo; set-up: scale not given here; conditions: 21st day after application
In short: (§2)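 Greenhouse pot test with soil-applied compound after sowing soybean and weeds in sand; effects graded on day 21 after application.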

slender amaranth (Am) [5] = test: as above; assay type: in vivo; set-up: scale not given here; conditions: 21st day after application
In short: as §2

corn (Ze) [6] = test: Test Example 7: crop plant selectivity by upland field soil treatment (corn), phytotoxicity; assay type: in vivo; set-up: scale not given here; conditions: 21st day after application
In short: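 Greenhouse pot test: scores for herbicidal effect and corn phytotoxicity were given 21 days after soil treatment, against set rating standards. Crop and weed species (foxtail, smartweed, amaranth, lambsquarters, China jute) were sown together in sand and covered with soil beforehand.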

corn (Ze) [7] = test: Test Example 11: crop plant selectivity by upland field foliage treatment (corn), phytotoxicity; conditions: dose 1.6 g ai/10a
In short: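 Corn and the weed species were sown together in sand-filled pots and grown in a greenhouse for 2 weeks before foliar treatment. Herbicidal effect was scored on day 14 after treatment against a graded standard scale, with corn phytotoxicity scored alongside.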

[8] = upland field foliage treatment, 14th day after treatment

SMILES | Herbicidal effects Ab (China jute (Ab); dose 6.3 g ai/10 a) | Herbicidal effects Ch ([1]; dose 6.3 g ai/10 a) | Herbicidal effects Se (green foxtail (Se); dose 6.3 g ai/10 a) | Herbicidal effects Po (pale smartweed (Po) [2]; dose 6.3 g ai/10 a) | Herbicidal effects Am (slender amaranth (Am) [3]; dose 6.3 g ai/10 a) | Herbicidal effects Po (pale smartweed (Po) [4]; dose 6.3 g ai/10a) | Herbicidal effects Am (slender amaranth (Am) [5]; dose 6.3 g ai/10a) | Phytotoxicity Ze (corn (Ze) [6]; dose 6.3 g ai/10a) | Phytotoxicity Ze (corn (Ze) [7]; [8]) | Herbicidal effects Ab (China jute (Ab); dose 1.6 g ai/10 a) | Herbicidal effects Ch ([1]; dose 1.6 g ai/10 a) | Herbicidal effects Se (green foxtail (Se); dose 1.6 g ai/10 a) | Herbicidal effects Po (pale smartweed (Po) [2]; dose 1.6 g ai/10 a) | Herbicidal effects Am (slender amaranth (Am) [3]; dose 1.6 g ai/10 a) | Herbicidal effects Po (pale smartweed (Po) [4]; dose 1.6 g ai/10a) | Herbicidal effects Am (slender amaranth (Am) [5]; dose 1.6 g ai/10a) | Phytotoxicity Ze (corn (Ze) [6]; dose 1.6 g ai/10a) | Phytotoxicity Ze (corn (Ze) [7]; corn, foliage treatment, evaluated on 14th day after treatment, index per Table 47)
CCCc1cc2c(-c3ccc(C(F)(F)F)n(C)c3=O)c(F)cc(Cl)c2o1 [Compound 4-3] | 5 | 5 | 5 | 5 | 5 | 5 | 5 | 1 | 2 |  |  |  |  |  |  |  |  | 
CCON=Cc1cc(-c2ccc(C(F)(F)F)n(C)c2=O)c(F)cc1Cl [Compound 1-187] | 5 | 5 | 5 | 5 | 5 | 5 | 5 | 1 | 2 |  |  |  |  |  |  |  |  | 
C=CC(O)c1cc(-c2ccc(C(F)(F)F)n(C)c2=O)c(F)cc1Cl (stereo not shown) [Compound 1-197] | 5 | 5 | 5 | 5 | 5 | 5 | 5 | 1 | 2 |  |  |  |  |  |  |  |  | 
Cn1c(C(F)(F)F)ccc(-c2cc(OCC#N)c(Cl)cc2F)c1=O [1-25] | 5 | 5 | 5 | 5 | 5 | 5 | 5 | 1 | 2 |  |  |  |  |  |  |  |  | 
CCOC(=O)c1cc(-c2ccc(C(F)(F)F)n(C)c2=O)c(F)cc1Cl [1-65] | 5 | 5 | 5 | 5 | 5 | 5 | 5 | 2 | 2 | 5 | 5 | 5 | 5 | 5 | 5 | 5 | 1 | 
COCc1cc2c(-c3ccc(C(F)(F)F)n(C)c3=O)c(F)cc(Cl)c2o1 [Compound No. 4-4, 3-(7-chloro-5-fluoro-2-methoxymethylbenzofuran-4-yl)-1-methyl-6-trifluoromethyl-2-(1H)-pyridone] | 5 | 5 | 5 | 5 | 5 | 5 | 5 | 2 | 2 | 5 | 5 | 5 | 5 | 5 |  |  | 1 | 
C=CCN1C(=O)COc2cc(Cl)c(-c3ccc(C(F)(F)F)n(C)c3=O)cc21 [Compound 2-26] | 5 | 5 | 5 | 5 | 5 | 5 | 5 | 1 | 2 |  |  |  |  |  |  |  |  | 
C=CCOc1cc(-c2ccc(C(F)(F)F)n(C)c2=O)c(F)cc1Cl [1-16] | 5 | 5 | 5 | 5 | 5 |  |  | 1 | 2 | 5 | 5 | 5 | 5 | 5 | 5 | 5 | 0 | 
C#CC(C)Oc1cc(Cl)cc(F)c1-c1ccc(C(F)(F)F)n(C)c1=O (stereo not shown) [1′-5] | 5 | 5 | 5 | 5 | 5 | 5 | 5 | 2 | 1 | 5 | 5 | 4 | 5 | 5 | 5 | 5 | 1 | 
C#CCOc1cc(-c2ccc(C(F)(F)F)n(C)c2=O)c(F)cc1Cl [1-18] | 5 | 5 | 5 | 5 | 5 |  |  | 2 | 2 | 5 | 5 | 5 | 5 | 5 | 5 | 5 | 1 | 
Cn1c(C(F)(F)F)ccc(-c2c(F)cc(Cl)c3oc(CO)cc23)c1=O [Compound No. 4-5, 3-(7-chloro-5-fluoro-2-hydroxymethylbenzofuran-4-yl)-1-methyl-6-trifluoromethyl-2-(1H)-pyridone] | 5 | 5 | 5 | 5 | 5 | 5 | 5 | 0 | 1 |  |  |  |  |  |  |  |  | 
CCc1cc2c(Cl)cc(F)c(-c3ccc(C(F)(F)F)n(C)c3=O)c2o1 [Compound 5-2] | 5 | 5 | 5 | 5 | 5 | 5 | 5 | 0 |  |  |  |  |  |  |  |  |  | 2
Cn1c(C(F)(F)F)ccc(-c2cc(OCCCl)c(Cl)cc2F)c1=O [1-171] | 5 | 5 | 5 | 5 | 5 | 5 | 5 | 0 | 1 |  |  |  |  |  |  |  |  | 
Cn1c(C(F)(F)F)ccc(-c2cc(C#N)c(Cl)cc2F)c1=O [Compound No. 1-119, 3-(4-chloro-5-cyano-2-fluorophenyl)-1-methyl-6-trifluoromethyl-2(1H)-pyridone] | 5 | 5 | 5 | 5 | 5 | 5 | 5 | 1 | 2 |  |  |  |  |  |  |  |  | 
CCCC(=O)c1cc(-c2ccc(C(F)(F)F)n(C)c2=O)c(F)cc1Cl [Compound No. 1-194, 3-[4-chloro-2-fluoro-5-(1-oxobutyl)phenyl]-1-methyl-6-trifluoromethyl-2(1H)-pyridone] | 5 | 5 | 5 | 5 | 5 | 5 | 5 | 0 | 1 |  |  |  |  |  |  |  |  | 
Cn1c(C(F)(F)F)ccc(-c2c(F)cc(Cl)c3occc23)c1=O [Compound No. 4-28, 3-(7-chloro-5-fluorobenzofuran-4-yl)-1-methyl-6-trifluoromethyl-2-(1H)-pyridone] | 5 | 5 | 5 | 5 | 5 |  |  |  | 2 | 5 | 5 | 5 | 5 | 5 | 5 | 5 | 1 | 
CCOC(=O)CON=Cc1cc(-c2ccc(C(F)(F)F)n(C)c2=O)c(F)cc1Cl [Compound 1-191] | 5 | 5 | 5 | 5 | 5 | 5 | 5 | 1 | 2 |  |  |  |  |  |  |  |  | 
C#CCN1C(=O)COc2cc(Cl)c(-c3ccc(C(F)(F)F)n(C)c3=O)cc21 [Compound 2-25] | 5 | 5 | 5 | 5 | 5 | 5 | 5 |  | 2 | 5 | 5 | 5 | 5 | 5 | 5 | 5 | 1 | 
CSCOc1cc(-c2ccc(C(F)(F)F)n(C)c2=O)c(F)cc1Cl [Compound 1-208] | 5 | 5 | 5 | 4 | 5 | 4 | 5 | 1 | 2 |  |  |  |  |  |  |  |  | 
C#CCOc1cc(-c2ccc(C(F)(F)F)n(C)c2=O)c(Cl)cc1Cl [1-30] | 5 | 5 | 5 | 5 | 5 |  |  | 2 | 2 | 5 | 5 | 5 | 5 | 5 | 5 | 5 | 1 | 
